From PubChem BioAssay (NCI)
“And” between values parts separate entries of the source, which are not always exact repeats. Equal entries are not always repeated.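 Results reflect a 48-hour exposure of cells in 96-well plates to compound at five concentrations. Here, GI50 denotes the concentration required for 50% inhibition of growth. TGI denotes the concentration required for complete inhibition of growth.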

What was measured:
Assay in all cases: NCI tumour cell line growth inhibition, 48 h
A498 renal = test system: A498 renal
A549 NSCLC = test system: A549 NSCLC
CAKI-1 renal = test system: CAKI-1 renal
CCRF-CEM leukemia = test system: CCRF-CEM leukemia
COLO 205 colon = test system: COLO 205 colon
DLD-1 colon = test system: DLD-1 colon
DMS 114 small cell lung = test system: DMS 114 small cell lung
DMS 273 small cell lung = test system: DMS 273 small cell lung
EKVX NSCLC = test system: EKVX NSCLC
HCC-2998 colon = test system: HCC-2998 colon
HCT-116 colon = test system: HCT-116 colon
HCT-15 colon = test system: HCT-15 colon
HL-60(TB) leukemia = test system: HL-60(TB) leukemia
HOP-18 NSCLC = test system: HOP-18 NSCLC
HOP-62 NSCLC = test system: HOP-62 NSCLC
HOP-92 NSCLC = test system: HOP-92 NSCLC
HT29 colon = test system: HT29 colon
IGROV1 ovarian = test system: IGROV1 ovarian
K-562 leukemia = test system: K-562 leukemia
KM12 colon = test system: KM12 colon
KM20L2 colon = test system: KM20L2 colon
LOX IMVI melanoma = test system: LOX IMVI melanoma
M19-MEL melanoma = test system: M19-MEL melanoma
MALME-3M melanoma = test system: MALME-3M melanoma
MCF7 breast = test system: MCF7 breast
MOLT-4 leukemia = test system: MOLT-4 leukemia
NCI-H226 lung = test system: NCI-H226 lung
NCI-H23 lung = test system: NCI-H23 lung
NCI-H460 lung = test system: NCI-H460 lung
NCI-H522 lung = test system: NCI-H522 lung
NCI/ADR-RES ovarian = test system: NCI/ADR-RES ovarian
OVCAR-3 ovarian = test system: OVCAR-3 ovarian
OVCAR-4 ovarian = test system: OVCAR-4 ovarian
OVCAR-5 ovarian = test system: OVCAR-5 ovarian
OVCAR-8 ovarian = test system: OVCAR-8 ovarian
P388 leukemia = test system: P388 leukemia
P388/ADR leukemia = test system: P388/ADR leukemia
RPMI-8226 leukemia = test system: RPMI-8226 leukemia
RXF 393 renal = test system: RXF 393 renal
SF-268 CNS = test system: SF-268 CNS
SF-295 CNS = test system: SF-295 CNS
SF-539 CNS = test system: SF-539 CNS
SK-MEL-2 melanoma = test system: SK-MEL-2 melanoma
SK-MEL-28 melanoma = test system: SK-MEL-28 melanoma
SK-MEL-5 melanoma = test system: SK-MEL-5 melanoma
SK-OV-3 ovarian = test system: SK-OV-3 ovarian
SN12C renal = test system: SN12C renal
SN12K1 renal = test system: SN12K1 renal
SNB-19 CNS = test system: SNB-19 CNS
SNB-75 CNS = test system: SNB-75 CNS
SNB-78 CNS = test system: SNB-78 CNS
SW-620 colon = test system: SW-620 colon
U251 CNS = test system: U251 CNS
UACC-257 melanoma = test system: UACC-257 melanoma
UACC-62 melanoma = test system: UACC-62 melanoma
UO-31 renal = test system: UO-31 renal
XF 498 CNS = test system: XF 498 CNS
786-0 renal = test system: 786-0 renal
ACHN renal = test system: ACHN renal
BT-549 breast = test system: BT-549 breast
DU-145 prostate = test system: DU-145 prostate
HS 578T breast = test system: HS 578T breast
M14 melanoma = test system: M14 melanoma
MDA-MB-231 breast = test system: MDA-MB-231 breast
MDA-MB-435 = test system: MDA-MB-435
MDA-N = test system: MDA-N
PC-3 prostate = test system: PC-3 prostate
SR leukemia = test system: SR leukemia
T-47D breast = test system: T-47D breast
TK-10 renal = test system: TK-10 renal

Molecule `CC(C)c1oc(=O)cc2c1C(O)C1OC(=O)C3(C)C(O)C4OC4C2(C)C13` (configuration not stated) has a TGI (A498 renal) of 1.41 µM, a TGI (A549 NSCLC) of 16.5 µM and a TGI (CAKI-1 renal) of 9.39 µM. The TGI (CCRF-CEM leukemia) was 3.07 µM, the TGI (COLO 205 colon) was 4.18 µM and the TGI (DLD-1 colon) was 8.57 µM. For the same molecule, the TGI (DMS 114 small cell lung) was 6.31 µM, the TGI (DMS 273 small cell lung) was 5.93 µM and the TGI (EKVX NSCLC) was 9.84 µM. For the same molecule, the TGI (HCC-2998 colon) was 7.92 µM, the TGI (HCT-116 colon) was 9.99 µM and the TGI (HCT-15 colon) was 41.6 µM. It also gave a TGI (HL-60(TB) leukemia) of 1.22 µM, a TGI (HOP-18 NSCLC) of 24.3 µM and a TGI (HOP-62 NSCLC) of 9.27 µM. The TGI (HOP-92 NSCLC) was 2.38 µM, the TGI (HT29 colon) was 11.1 µM and the TGI (IGROV1 ovarian) was 20.6 µM. It also gave a TGI (K-562 leukemia) of 6.63 µM, a TGI (KM12 colon) of 24.9 µM and a TGI (KM20L2 colon) of 12.8 µM. It also gave a TGI (LOX IMVI melanoma) of 5.77 µM, a TGI (M19-MEL melanoma) of 7.75 µM and a TGI (MALME-3M melanoma) of 10 µM. It also gave a TGI (MCF7 breast) of 5.23 µM, a TGI (MOLT-4 leukemia) of 2.13 µM and a TGI (NCI-H226 lung) of 19.3 µM. For the same molecule, the TGI (NCI-H23 lung) was 7.63 µM, the TGI (NCI-H460 lung) was 9.73 µM and the TGI (NCI-H522 lung) was 5.21 µM. For the same molecule, the TGI (NCI/ADR-RES ovarian) was 96.9 µM, the TGI (OVCAR-3 ovarian) was 6.42 µM and the TGI (OVCAR-4 ovarian) was 12.4 µM. For the same molecule, the TGI (OVCAR-5 ovarian) was 27.2 µM, the TGI (OVCAR-8 ovarian) was 10.6 µM and the TGI (P388 leukemia) was 1.23 µM. It also gave a TGI (P388/ADR leukemia) of 16.6 µM, a TGI (RPMI-8226 leukemia) of 4.1 µM and a TGI (RXF 393 renal) of 6.8 µM. The TGI (SF-268 CNS) was 25 µM, the TGI (SF-295 CNS) was 12.8 µM and the TGI (SF-539 CNS) was 4.19 µM. For the same molecule, the TGI (SK-MEL-2 melanoma) was 7.71 µM, the TGI (SK-MEL-28 melanoma) was 12.7 µM and the TGI (SK-MEL-5 melanoma) was 1.77 µM. The TGI (SK-OV-3 ovarian) was 20.3 µM, the TGI (SN12C renal) was 7.05 µM and the TGI (SN12K1 renal) was 9.37 µM. It also gave a TGI (SNB-19 CNS) of 4.41 µM, a TGI (SNB-75 CNS) of 7.92 µM and a TGI (SNB-78 CNS) of 52 µM. It also gave a TGI (SW-620 colon) of 19 µM, a TGI (U251 CNS) of 25 µM and a TGI (UACC-257 melanoma) of 10.8 µM. It also gave a TGI (UACC-62 melanoma) of 7.44 µM, a TGI (UO-31 renal) of 15.5 µM and a TGI (XF 498 CNS) of 1.95 µM.

`CNC(=O)ON(C(C)=O)C(=O)NC` was tested, and the GI50 (786-0 renal) was over 93.8 µM, the TGI (786-0 renal) was 34.4 µM and the TGI (A498 renal) was 211 µM. It also gave a TGI (A549 NSCLC) of 283 µM, a GI50 (ACHN renal) of over 60.8 µM and a TGI (ACHN renal) of 47.7 µM. It also gave a GI50 (BT-549 breast) of over 45.2 µM, a TGI (BT-549 breast) of 60.5 µM and a TGI (CAKI-1 renal) of 146 µM. The GI50 (CCRF-CEM leukemia) was 20.1 µM and 6.17 µM, the TGI (CCRF-CEM leukemia) was > 65.9 µM and 43 µM and the GI50 (COLO 205 colon) was > 70 µM and 47.5 µM. The TGI (COLO 205 colon) was 142 µM, the TGI (DLD-1 colon) was 326 µM and the TGI (DMS 114 small cell lung) was 126 µM. For the same molecule, the TGI (DMS 273 small cell lung) was 241 µM, the TGI (DU-145 prostate) was 135 µM and the GI50 (EKVX NSCLC) was 108 µM. The TGI (EKVX NSCLC) was 241 µM, the TGI (HCC-2998 colon) was 272 µM and the TGI (HCT-116 colon) was 136 µM. The GI50 (HCT-15 colon) was over 76.4 µM, the TGI (HCT-15 colon) was 109 µM and the GI50 (HL-60(TB) leukemia) was 14.2 µM and 8.38 µM. The TGI (HL-60(TB) leukemia) was 37.7 µM and 29.5 µM, the TGI (HOP-18 NSCLC) was 242 µM and the TGI (HOP-62 NSCLC) was 309 µM. The GI50 (HOP-92 NSCLC) was over 56 µM, the TGI (HOP-92 NSCLC) was 64.4 µM and the GI50 (HS 578T breast) was 49.9 µM. For the same molecule, the TGI (HS 578T breast) was 216 µM, the GI50 (HT29 colon) was 94.1 µM and the TGI (HT29 colon) was 242 µM. The TGI (IGROV1 ovarian) was 241 µM, the GI50 (K-562 leukemia) was 51.8 µM and 26.6 µM and the TGI (K-562 leukemia) was 241 µM. It also gave a TGI (KM12 colon) of 166 µM, a TGI (KM20L2 colon) of 324 µM and a GI50 (LOX IMVI melanoma) of 65.2 µM. For the same molecule, the TGI (LOX IMVI melanoma) was 119 µM, the GI50 (M14 melanoma) was over 83.2 µM and the TGI (M14 melanoma) was 41 µM. The TGI (M19-MEL melanoma) was 401 µM, the GI50 (MALME-3M melanoma) was over 78.6 µM and the TGI (MALME-3M melanoma) was 129 µM. For the same molecule, the TGI (MCF7 breast) was 154 µM, the GI50 (MDA-MB-231 breast) was 28.8 µM and the TGI (MDA-MB-231 breast) was 78.4 µM. For the same molecule, the TGI (MDA-MB-435) was 50.2 µM, the GI50 (MDA-N) was over 85.8 µM and the TGI (MDA-N) was 73.6 µM. The GI50 (MOLT-4 leukemia) was 35.7 µM and 19.1 µM, the TGI (MOLT-4 leukemia) was > 91.5 µM and 92 µM and the TGI (NCI-H226 lung) was 230 µM. For the same molecule, the TGI (NCI-H23 lung) was 156 µM, the TGI (NCI-H460 lung) was 220 µM and the TGI (NCI-H522 lung) was 73.5 µM. It also gave a TGI (NCI/ADR-RES ovarian) of 266 µM, a GI50 (OVCAR-3 ovarian) of over 81.9 µM and a TGI (OVCAR-3 ovarian) of 140 µM. It also gave a TGI (OVCAR-4 ovarian) of 142 µM, a TGI (OVCAR-5 ovarian) of 276 µM and a TGI (OVCAR-8 ovarian) of 235 µM. The TGI (P388 leukemia) was 62.4 µM, the TGI (P388/ADR leukemia) was 111 µM and the TGI (PC-3 prostate) was 60.7 µM. For the same molecule, the GI50 (RPMI-8226 leukemia) was 41.4 µM and 25.2 µM, the TGI (RPMI-8226 leukemia) was > 77.2 µM and 111 µM and the TGI (RXF 393 renal) was 107 µM. The TGI (SF-268 CNS) was 323 µM, the TGI (SF-295 CNS) was 267 µM and the TGI (SF-539 CNS) was 145 µM. For the same molecule, the GI50 (SK-MEL-2 melanoma) was 38.3 µM, the TGI (SK-MEL-2 melanoma) was 98.5 µM and the TGI (SK-MEL-28 melanoma) was 159 µM. For the same molecule, the TGI (SK-MEL-5 melanoma) was 107 µM, the TGI (SK-OV-3 ovarian) was 276 µM and the TGI (SN12C renal) was 166 µM. It also gave a TGI (SN12K1 renal) of 192 µM, a TGI (SNB-19 CNS) of 359 µM and a TGI (SNB-75 CNS) of 182 µM. The TGI (SNB-78 CNS) was 384 µM, the GI50 (SR leukemia) was 7.31 µM and the TGI (SR leukemia) was over 72.3 µM. It also gave a GI50 (SW-620 colon) of over 94 µM, a TGI (SW-620 colon) of 224 µM and a TGI (T-47D breast) of 33.5 µM. It also gave a TGI (TK-10 renal) of 70.6 µM, a GI50 (U251 CNS) of 93 µM and a TGI (U251 CNS) of 222 µM. For the same molecule, the TGI (UACC-257 melanoma) was 159 µM, the GI50 (UACC-62 melanoma) was over 88.2 µM and the TGI (UACC-62 melanoma) was 149 µM. The TGI (UO-31 renal) was 114 µM and the TGI (XF 498 CNS) was 131 µM.
